Experimental data from publication PMC7795662, “Alkaloids with Anti-Onchocercal Activity from Voacanga africana Stapf (Apocynaceae): Identification and Molecular Modeling” (Molecules, 2020).
Like-named read-outs stand apart in the source and are kept apart here.

Columns and labels:
[1] = test system: Onchocerca ochengi microfilariae; test: O. ochengi microfilariae (Mf) motility assay, primary and secondary screens; type: cell-based; settings: for inhibition at 30 µM: 24 h, read-out: % Mf Motility Reduction after 24 h; for IC50: read-out: IC50 Mf; for effect on motility of microfilariae (in words): dose-dependent manner; for SI Mf: selectivity index = IC50 on LLC-MK2 cells (CC50) / IC50 on parasites
Method: Briefly, Mf were prepared using the method described by Cho-Ngwa et al., with slight modifications. A few skin snips were obtained from different locations and incubated in aliquots of culture medium for 15 min, after which the emergent Mf were qualified and quantified using an inverted microscope and standard atlases. The leftover pieces of skin were shaved, rinsed, sterilized with 70% ethanol and sliced into thin slivers. The slivers were incubated in CCM for 2 h, and the emergent highly motile O. ochengi Mf were concentrated by centrifugation. The Mf were transferred to 96-well micro titer plates (15 Mf/100 μL/well) containing a fully confluent LLC-MK2 cell layer in 100 μL of CCM. This was monitored for viability and sterility for 24 h before addition of test and control compounds.
The biological assays were conducted in duplicate in the 96-well microtiter plates. The Mf were incubated with the drug for 120 h in a total of 200 μL of medium. Mf viability was assessed by microscopy once every day and motility inhibition scores were recorded. […] Motility inhibition correlates to drug activity. The positive control drug was amorcazine at 30 μM, and negative control was the diluent (DMSO).
Compounds showing 100% activity in the primary screens were re-tested as described under primary screens to determine the IC50 values. All assays were repeated at least once. The selectivity index (SI) of each extract was calculated as the ratio of the IC50 of the extract on the mammalian cell (termed CC50) to the IC50 on parasites.

[2] = test system: Onchocerca ochengi adult male worms; test: O. ochengi adult male worm motility assay, primary and secondary screens; type: cell-based; settings: for IC50: read-out: IC50 Adult Male Worm; for effect on motility of adult male worms (in words): dose-dependent manner; for SI Adult Male Worm: selectivity index = IC50 on LLC-MK2 cells (CC50) / IC50 on parasites
Method: (§1) The isolation of O. ochengi adult worms was performed as described previously by Cho-Ngwa et al.. Briefly, fresh pieces of umbilical cattle skin with palpable nodules bought from butchery in Douala, Cameroon were washed, drained and sterilized with 70% ethanol. The worms were carefully scraped out of the nodules as single masses and temporarily submerged in 1 mL complete culture medium, CCM [RPMI-1640 (Sigma-Aldrich, St. Louis, MO, USA) supplemented with 25 mM HEPES, 2 g/L sodium bicarbonate, 2 mM L-glutamine, 5% newborn calf serum (SIGMA, St. Louis, MO, USA), 150 units/mL penicillin, 150 µg/mL streptomycin and 0.5 µg/mL amphotericin B (SIGMA, St. Louis, MO, USA), pH 7.4)] using 24-well plates. The adult worms were incubated in the culture medium overnight in a CO2 incubator, during which period the male worms migrated out of the nodular masses. Only wells containing viable worms received treatment with test compounds. Damaged worms and worms from putrefied nodules were discarded. The viability of worms retained for the assay was ascertained by visual and microscopic examination of adult male worm motility using an inverted microscope.
(§2) The compounds were tested on […] at a single concentration of 30 μM, in duplicate wells. […] The female worms were removed and incubated in 500 μL of 0.5 μg/mL MTT for the last 30 min of incubation. Inhibition of formazan formation from MTT directly correlates with worm death. The worms were blotted on absorbent paper and observed visually for blue coloration against a white background. […] Auranofin at 10 μM, which had previously shown activity against O. ochengi adult worms and Mf, was used as a positive control, while negative control wells received the diluent, 2% DMSO only, previously shown to have no effect on parasite viability. The solvent DMSO (2%) was used as a negative control. […] Furthermore, the toxicity of DMSO decreases with dilution.
Adult male worm motility was evaluated with the aid of an inverted microscope.
(§3) The pure compounds with 100% activity at primary screens were re-tested as described under primary screens, in order to determine the IC50 values. The IC50 assays were performed in triplicate and each experiment repeated for confirmation. The means of all activities at a concentration were calculated and used in the statistical analyses. GraphPadPrism version 6.0 (GraphPad Software, San Diego, CA, USA) was used to generate dose response curves from which the IC50 values were obtained.

[3] = test system: Onchocerca ochengi adult female worms; test: O. ochengi adult female worm viability, MTT/formazan assay; type: cell-based; settings: for killing at 30 µM: read-out: % Adult Female Worm Death after 120 h; for activity on adult female worms (in words): biochemical assessment at 30 μM; for IC100 Adult Female Worm: secondary screen
Method: as §1, §2, §3

[4] = test system: Monkey kidney epithelial cells (LLC-MK2); test: Cytotoxicity on monkey kidney epithelial cells, microscopic; type: cell-based; settings: read-out: IC50 Monkey Kidney Cells (LLC-MK2)
Method: Monkey kidney epithelial cells (LLC-MK2) (ATCC, Manassas, VA, USA) were cultured at 37 °C in humidified air with 5% CO2 in a Hera Cell-150 incubator (Thermo Electron, Karlsruhe, Germany) until the cell layer was almost confluent. The cell suspension was dispensed into 96-well micro titer plates (200 µL/well) and kept in the incubator for 3–5 days for cells to grow and become fully confluent. These cells served as feeder layers for the Mf assays and were also used for cytotoxicity studies.
Cytotoxicity of the pure compounds with anti-onchocercal activities was assessed on LLC-MK2 cells, microscopically, on day 5 of the Mf assay. Living cells were flattened out and attached to the culture plate, while dead cells were rounded up and detached from the plate. The IC50 values for these cells were estimated from the morphological deformation data.

[5] = test system: Onchocerca ochengi adult male worms; test: O. ochengi adult male worm motility assay, primary and secondary screens; type: cell-based; settings: for inhibition at 30 µM: Onchocerca ochengi, 24 h, read-out: % Adult Male Worm Motility Reduction after 24 h
Onchocerca ochengi = test system: Onchocerca ochengi; set-up: method as in earlier work; settings: from stem bark of V. africana; cited from earlier work
[6] = Onchocerca ochengi, primary screen, 30 μM
[7] = Onchocerca ochengi, secondary screen, motility
[8] = Primates, LLC-MK2, 120 h, cytotoxicity, day 5, estimated from morphological deformation

Row | Molecule | IC50 [1, 7] | effect on motility of microfilariae (in words) [1] | IC100 Mf ([1]; secondary screen) | SI Mf [1] | IC50 ([2]; Onchocerca ochengi) | effect on motility of adult male worms (in words) [2] | IC100 Adult Male Worm ([2]; secondary screen) | SI Adult Male Worm [2] | killing at 30 µM ([3]; Onchocerca ochengi, 120 h) | activity on adult female worms (in words) [3] | IC100 Adult Female Worm [3] | IC50 [4, 8] | inhibition at 30 µM [5] | inhibition at 30 µM ([1]; Onchocerca ochengi) | also measured
1 | CC[C@H]1C[C@@H]2CN3CCc4c([nH]c5ccccc45)[C@](C(=O)OC)(C2)[C@H]13 [Compound 4, coronaridine] | 4.21 µM | inhibit the motility | 8.42 µM | 7.13 | 8.68 µM | inhibit the motility | 17.36 µM | 3.45 | 50% | moderately active | >30 µM | ≥ 30 µM | 100% |  | inhibition at 30 µM [1, 6]: 100%
2 | CC[C@H]1C[C@@H]2C[C@H]3c4[nH]c5cc(OC)ccc5c4CC[N@@](C2)[C@@H]13 [Compound 5, tabernanthine] |  | almost inactive |  |  |  | almost inactive |  |  | 0% | almost inactive |  |  | 0% | 0% | 
3 | CC(=O)OC[C@H]1O[C@@H]([S-])[C@H](OC(C)=O)[C@@H](OC(C)=O)[C@@H]1OC(C)=O.CCP(CC)CC.[Au+] [Auranofin, reference compound] |  |  |  |  |  |  |  |  |  |  |  |  |  |  | % Mf Motility Reduction after 24 h ([1]; positive control, 10 μM): 100%; % Adult Female Worm Death after 120 h ([3]; positive control, 10 μM, % inhibition of formazan formation): 100%; % Adult Male Worm Motility Reduction after 24 h ([5]; positive control, 10 μM): 100%
4 | COC(=O)[C@@]12C[C@@H]3C[C@H]([C@H](C)O)[C@@H]1N(CCc1c2[nH]c2ccc(OC)cc12)C3 [Compound 3, voacristine] | 4.34 µM | inhibit the motility | 8.68 µM | 6.91 | 8.07 µM | inhibit the motility | 16.14 µM | 3.71 | 50% | moderately active | >30 µM | ≥ 30 µM | 100% |  | inhibition at 30 µM [1, 6]: 100%
5 | voacamine [Compound 7] |  | inhibit the motility | 10 µM |  |  | inhibit the motility | 10 µM |  |  | moderately active | >30 µM |  |  |  | % Mf Motility Reduction after 24 h ([1]; primary screen, 30 μM): 100%; IC50 ([1]; secondary screen, motility): 2.49 µM; IC50 ([2]; secondary screen, motility): 3.45 µM; % Adult Female Worm Death after 120 h ([3]; primary screen, 30 μM, corresponds to % inhibition of formazan formation): 65%; IC50 ([4]; cytotoxicity, day 5, estimated from morphological deformation): ≥ 30 µM; % Adult Male Worm Motility Reduction after 24 h ([5]; primary screen, 30 μM): 100%; activity against Onchocerca ochengi (in words) (Onchocerca ochengi): showing activity
6 | CN1CCN(C(=S)Nc2ccc(Nc3ccc([N+](=O)[O-])cc3)cc2)CC1 [amocarzine, reference compound] |  |  |  |  |  |  |  |  |  |  |  |  |  |  | inhibition at 10 µM ([3]; Onchocerca ochengi, 120 h, read-out: inhibition of formazan formation in adult female worms): 100%
7 | Ivermectin [reference compound] |  |  |  |  |  |  |  |  |  |  |  |  |  |  | % Mf Motility Reduction after 24 h ([1]; positive control, 10 μg/mL): 100%
8 | COc1ccc2[nH]c3c(c2c1)CCN1CC2CC3C1C([C@H](C)O)C2 (stereo partly shown) [Compound 6, iboxygaine] |  | inhibit the motility | 9.44 µM | 6.35 | 9.07 µM | inhibit the motility | 18.14 µM | 3.30 | 50% | moderately active | >30 µM |  | 100% | 100% | IC50 ([1]; Onchocerca ochengi): 4.72 µM; IC50 ([4]; Primates, LLC-MK2, 120 h): ≥ 30 µM
9 | C/C=C1/CN(C)C2Cc3c([nH]c4ccccc34)[C@@H](c3cc4[nH]c5c(c4cc3OC)CCN3CC4CC([C@H](C)O)C3[C@@]5(C(=O)OC)C4)CC1C2C(=O)OC (stereo partly shown) [Compound 8, voacorine] |  | inhibit the motility | 4.98 µM | 12.04 | 3.45 µM | inhibit the motility | 6.90 µM | 8.69 | 50% | moderately active | >30 µM |  | 100% | 100% | IC50 ([1]; Onchocerca ochengi): 2.49 µM; IC50 ([4]; Primates, LLC-MK2, 120 h): ≥ 30 µM
10 | CC[C@H]1CC2CN3CCc4c([nH]c5ccc(OC)cc45)[C@](C(=O)OC)(C2)[C@H]13 (stereo in doubt) [Compound 2, voacangine] | 5.49 µM | inhibit the motility | 10 µM | 5.46 | 9.07 µM | inhibit the motility | 20 µM | 3.30 | 100% | moderately active | >30 µM | ≥ 30 µM | 100% |  | inhibition at 30 µM [1, 6]: 100%; activity against Onchocerca ochengi (in words) (Onchocerca ochengi): showing activity
11 | C/C=C1\CN(C)C2Cc3c([nH]c4ccccc34)[C@@H](c3cc4[nH]c5c(c4cc3OC)CCN3CC4C[C@H](CC)C3[C@@]5(C(=O)OC)C4)CC1C2C(=O)OC (stereo partly shown) [Compound 1, voacamine A] | 3.69 µM | inhibit the motility | 7.38 µM | 8.13 | 4.45 µM | inhibit the motility | 8.90 µM | 6.74 | 65% | moderately active | >30 µM | ≥ 30 µM | 100% | 100% | 
